From US5872122A, “Pyrimidinylamidino β-amino acid derivatives useful as inhibitors of platelet aggregation” (Monsanto Company, priority 1997, dated 1999)

These compounds were tested on platelet aggregation (assay: In-Vitro Platelet Aggregation in PRP (ADP-induced)). Settings: Canis lupus familiaris; dog platelet-rich plasma; ADP 50 μM final; 1 min preincubation at 37° C.; read-out: IC50 (dosage at which 50% of platelet aggregation is inhibited).
Format: cell-based
Description: Healthy male or female dogs were fasted for 8 hours prior to drawing blood; then 30 mL whole blood was collected using a butterfly needle and 30 mL plastic syringe with 3 mL of 0.129M buffered sodium citrate (3.8%). The syringe was rotated carefully as blood was drawn to mix the citrate. Platelet-rich plasma (PRP) was prepared by centrifugation at 975×g for 3.17 minutes at room temperature allowing the centrifuge to coast to a stop without braking. The PRP was removed from the blood with a plastic pipette and placed in a plastic-capped 50 mL Corning conical sterile centrifuge tube which was held at room temperature. Platelet-poor plasma (PPP) was prepared by centrifuging the remaining blood at 2000×g for 15 minutes at room temperature allowing the centrifuge to coast to a stop without braking. The PRP was adjusted with PPP to a count of 2-3×10^8 platelets/mL. The PRP preparation (400 μL) and 50 μL of the compound solution to be tested or saline were preincubated for 1 minute at 37° C. in a BioData aggregometer (BioData, Horsham, Pa.). Adenosine-5'-diphosphate (ADP, 50 μL, 50 μM final concentration) was added to the cuvettes and the aggregation was monitored for 1 minute. All compounds are tested in duplicate. Results are calculated as follows: Percent of control=[(maximal OD minus initial OD of compound) divided by (maximal OD minus initial OD of control saline)]×100. The percent inhibition equals 100-(percent of control).
The compounds tested and their median inhibitory concentrations (IC50) are recorded in Table 1. The IC50 (dosage at which 50% of platelet aggregation is inhibited) were calculated by linear regression of the dose response curve.

Row | SMILES | IC50 [nM]
1 | N=C(N)c1cnc(CCCCC(=O)N[C@@H](CC(=O)O)C(=O)N[C@@H](Cc2ccccc2)C(N)=O)nc1 (relative stereo) [Ex. 1, [S,(R*,R*)]-3-[[5-[5-(aminoiminomethyl)-2-pyrimidinyl]-1-oxopentyl]amino]-4-[[2-amino-2-oxo-1-(phenylmethyl)ethyl]amino]-4-oxobutanoic acid] | 590
2 | N=C(N)c1cnc(CCCCC(=O)N[C@@H](CC(=O)O)C(=O)N[C@@H](Cc2ccccc2)C(=O)O)nc1 [Ex. 2] | 110
3 | N=C(N)c1cnc(CCCCC(=O)NC(CC(=O)O)c2ccccc2)nc1 (stereo not drawn) [Ex. 3, β-[[5-[5-(aminoiminomethyl)-2-pyrimidinyl]-1-oxopentyl]amino]-phenylpropanoic acid] | 2200
4 | N=C(N)c1cnc(CCCCC(=O)NCCC(=O)O)nc1 [Ex. 4, N-[5-[5-(aminoiminomethyl)-2-pyrimidinyl]-1-oxopentyl]-β-alanine] | 50000
5 | N=C(N)c1cnc(CCCCC(=O)NC(CC(=O)O)c2cccnc2)nc1 (stereo not drawn) [Ex. 6, β-[[5-[5-(aminoiminomethyl)-2-pyrimidinyl]-1-oxopentyl]amino]-3-pyridinepropanoic acid] | 530
